In ChEMBL document CHEMBL1158313, “Isolation of New Steroidal Hemiacetals from the Gorgonian Euplexaura anastomosans” (J Nat Prod, 1996) one finds Activity data, which are given here for four molecules.

One data set concerns P388. The data set can be described thus: Cytotoxicity against mouse P388 cells. It counts as functional, cell-based.
In the next data set the test system is Artemia. Nature of the data set: Toxicity against brine shrimp larvae. Type of data set: organism-based. To be noted: in vivo.

Molecules are shown by their SMILES. The source made the active and inactive calls. No cut-off for these calls is given here.

Take `CC(C)[C@H]1CC[C@H]([C@@]2(O)CC[C@H]3[C@@H]4CC[C@H]5CC(=O)CC[C@]5(C)[C@H]4CC[C@@]32C)[C@H](O)O1` [ANASTOMOSACETAL D]: the outcome in the data set with P388 was inactive. Also, the Activity entry in the data set with Artemia is recorded as “Non-toxic”.
As for `CC(C)[C@H]1CC[C@H]([C@@]2(O)CC[C@H]3[C@@H]4CCC5=CC(=O)C=C[C@]5(C)[C@H]4CC[C@@]32C)[C@H](O)O1` [ANASTOMOSACETAL A], the result in the data set on P388 was inactive. Also, the Activity result in the data set on Artemia is listed as “Non-toxic”.
Consider `CC(C)[C@H]1CC[C@H]([C@@]2(O)CC[C@H]3[C@@H]4CCC5=CC(=O)CC[C@]5(C)[C@H]4CC[C@@]32C)[C@H](O)O1` [ANASTOMOSACETAL C], for which the result in the data set with P388 was inactive. Moreover, in the data set on Artemia, the Activity result is recorded as “Non-toxic”.
On to `CC(C)[C@H]1CC[C@H]([C@@]2(O)CC[C@H]3[C@@H]4CC[C@H]5CC(=O)C=C[C@]5(C)[C@H]4CC[C@@]32C)[C@H](O)O1` [ANASTOMOSACETAL B], for which, in the data set with P388, the result was inactive. In the data set with Artemia, the Activity result is on record as “Non-toxic”.
